The target of data set [1] is 14-3-3γ (gamma) (Homo sapiens, UniProt P61981). The class given is binding.
For data set [2], the target named is 14-3-3σ (sigma) (Homo sapiens, UniProt P31947). The class given is binding.
The test system of data set [3] is all seven human 14-3-3 isoforms. It counts as binding.
Data set [4] has as its target 14-3-3γ (Homo sapiens, UniProt P61981). The class given is binding.
Data set [5] deals with the molecule itself. Description: crystal structure.
Data set [6] deals with T1, Untagged full-length human 14-3-3γ (human, UniProt P61981 1-247).
T1 sequence: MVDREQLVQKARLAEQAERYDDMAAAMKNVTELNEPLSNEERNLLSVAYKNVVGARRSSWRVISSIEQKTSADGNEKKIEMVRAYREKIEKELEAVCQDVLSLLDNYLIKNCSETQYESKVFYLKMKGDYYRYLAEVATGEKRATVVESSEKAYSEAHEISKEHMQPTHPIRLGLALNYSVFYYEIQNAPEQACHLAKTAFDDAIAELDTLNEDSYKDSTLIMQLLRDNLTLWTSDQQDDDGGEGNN
Nature of the data set: fluorescence polarisation.

“Also recorded” adds a separate entry of the source. Non-standard residues stand in square brackets, D forms with d. Residues, ends and D or L forms follow the SMILES beside them. No end group written: not given here. *: point of attachment. FITC = O=C1OC2(c3ccc(O)cc3Oc3cc(O)ccc32)c2ccc(NC(=S)*)cc21; pT = C[C@@H](OP(=O)(O)O)[C@H](N)C(=O)O; pS = N[C@@H](COP(=O)(O)O)C(=O)O

14-3-3σ (sigma), sequence (P31947 whole entry, canonical isoform): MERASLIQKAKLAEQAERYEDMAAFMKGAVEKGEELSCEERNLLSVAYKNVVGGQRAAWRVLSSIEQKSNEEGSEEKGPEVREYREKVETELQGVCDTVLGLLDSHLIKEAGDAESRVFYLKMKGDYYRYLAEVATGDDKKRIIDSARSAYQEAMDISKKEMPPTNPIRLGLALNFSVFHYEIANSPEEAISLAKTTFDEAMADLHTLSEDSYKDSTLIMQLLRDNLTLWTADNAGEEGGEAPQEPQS

`O=C1OC2(c3ccc(O)cc3Oc3cc(O)ccc32)c2ccc(N=C=S)cc21` [free FITC, fluorescein 5-isothiocyanate, reference compound]: in data set [1], the “Binding to MBP-14-3-3 (free FITC control)” value is recorded as “did not show significant binding”. With `CSCC[C@H](NC(=O)[C@H](CCCNC(=N)N)NC(=O)[C@H](C)NC(=O)[C@@H]1CCCN1C(=O)[C@H](CO)NC(=O)[C@@H](NC(=O)CNC(=O)[C@H](CCCNC(=N)N)NC(=O)[C@H](CO)NC(=O)[C@H](CO)NC(=O)[C@H](Cc1c[nH]c2ccccc12)NC(=S)Nc1ccc2c(c1)C(=O)OC21c2ccc(O)cc2Oc2cc(O)ccc21)[C@@H](C)OP(=O)(O)O)C(=O)O` [pT205] ({FITC}-WSSRG[pT]SPARM-OH), in data set [1], the “Selectivity coefficient (KD pS197 / KD pT205), gamma” value is listed as about 7. For the same molecule, the “Ratio: affinity of 14-3-3σ to pT205 versus pS197 peptide” value in data set [2] is recorded as about 3 times tighter. Further, in data set [3], the “Affinity preference” value is recorded as “preferred over the pS197-motif by all seven human 14-3-3 isoforms; also recorded: consistently tighter affinity than the pS197 fragment”; the “KD ratio between weakest (14-3-3σ/pS197) and strongest (14-3-3γ/pT205) pair” value is on record as about 10 fold; the “Order of affinity over the 14-3-3 isoforms” value is “gamma (γ) > eta (η) > beta (β) > epsilon (ε) > zeta (ζ) > tau (τ) > sigma (σ)”; the “Ratio of the average KD values pS197/pT205” value amounted to 4.3 fold. Take WLRRApSAPLPGLK [pB6]: in data set [4], the “Displacement of FITC-labeled peptide from 14-3-3” value is recorded as “could be disrupted”.

B1: C-terminally truncated human 14-3-3σ (residues 1–231) Clu3 mutant (75EEK77 → 75AAA77) (domain or fragment)
chain: MERASLIQKAKLAEQAERYEDMAAFMKGAVEKGEELSCEERNLLSVAYKNVVGGQRAAWRVLSSIEQKSNEEGSAAAGPEVREYREKVETELQGVCDTVLGLLDSHLIKEAGDAESRVFYLKMKGDYYRYLAEVATGDDKKRIIDSARSAYQEAMDISKKEMPPTNPIRLGLALNFSVFHYEIANSPEEAISLAKTTFDEAMADLHTLSEDSYKDSTLIMQLLRDNLTLWT
Turning to B1, the stoichiometry N (as a rule, a count of units in the complex or per binding partner) in data set [5] came out at 2.

B2: C-terminally truncated human 14-3-3σ (residues 1–231) Clu1 mutant (159KKE161 → 159AAA161) (domain or fragment)
chain: MERASLIQKAKLAEQAERYEDMAAFMKGAVEKGEELSCEERNLLSVAYKNVVGGQRAAWRVLSSIEQKSNEEGSEEKGPEVREYREKVETELQGVCDTVLGLLDSHLIKEAGDAESRVFYLKMKGDYYRYLAEVATGDDKKRIIDSARSAYQEAMDISAAAMPPTNPIRLGLALNFSVFHYEIANSPEEAISLAKTTFDEAMADLHTLSEDSYKDSTLIMQLLRDNLTLWT
In the case of B2, the “stoichiometry N” value in data set [5] is 2. On to WLRRA[pS]APLPGLK [Unlabeled phosphopeptide of human HSPB6 (pB6) WLRRApSAPLPGLK], for which the binding result in data set [6] is given as “binds”.

These data come from PMC9683861 (Journal of Molecular Biology, 2022).
